Among the test systems are 786-0; A549; CCRF-CEM; COLO 205; HL-60; HOP-92; LOX IMVI; MDA-MB-435; NCI/ADR-RES; OVCAR-3; OVCAR-4; OVCAR-8; RPMI-8226; RXF 393; SF-268; SF-295; SK-OV-3; SNB-19; TK-10; UACC-62.
Holding throughout (assay): inhibition of tumour cell growth, NCI panel, 48 h

Structures are written as SMILES.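 1) Cells in 96-well plates. 2) Compound, 48 h, 5 concentrations. 3) Linear interpolation between surrounding doses. 4) Unreached endpoint = highest concentration. At the GI50, growth is halved.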 Calls of active or inactive are those of the source. No stated cut-off is given here; in the data, active = GI50 up to about 1.1 µM and inactive = higher. Bounds are passed on as bounds.

Turning to `COc1cccc(-c2cc(=O)c3cc(N4CCCCC4)ccc3[nH]2)c1`, the GI50 with 786-0 is < 0.0119 µM (active); in the test with A549, < 0.0206 µM (active); with CCRF-CEM it was < 0.01 µM (active); in the test with COLO 205, < 0.0139 µM (active); with HL-60 it was < 0.01 µM (active); in the test with HOP-92 it was 13.1 µM (inactive). Also, the GI50 was < 0.0177 µM (active) with LOX IMVI; < 0.01 µM (active) in the test on MDA-MB-435; 0.02 µM (active) with NCI/ADR-RES; < 0.01 µM (active) in the test with OVCAR-3; 1.51 µM (inactive) in the test with OVCAR-4; 0.026 µM (active) with OVCAR-8. Also, the GI50 was < 0.01 µM (active) in the test with RPMI-8226; < 0.01 µM (active) in the test with RXF 393; 0.16 µM (active) in the test with SF-268; 0.0119 µM (active) in the test with SF-295; 0.0316 µM (active) in the test with SK-OV-3; < 0.0117 µM (active) in the test with SNB-19. For the same compound, the results for the GI50 in the test with TK-10 and with UACC-62 were 79.3 µM (inactive) and < 0.01 µM (active), respectively.
In the case of `COc1cc(/C=N/N=C(\N)NO)cc(OC)c1OC`, the GI50 is 15.4 µM (inactive) in the test with 786-0; 18.7 µM (inactive) in the test with A549; 31.8 µM (inactive) in the test with CCRF-CEM; 12.4 µM (inactive) in the test on COLO 205; 23 µM (inactive) with HL-60; 23.5 µM (inactive) in the test with HOP-92. Also, the GI50 in the test on LOX IMVI is 31.1 µM (inactive); in the test on MDA-MB-435 it was 44.6 µM (inactive); in the test on NCI/ADR-RES it was 15.7 µM (inactive); in the test on OVCAR-3, 21.9 µM (inactive); in the test on OVCAR-4, 40.8 µM (inactive); with OVCAR-8 it was 18.5 µM (inactive). Also, the GI50 in the test with RPMI-8226 was 37.2 µM (inactive); in the test with RXF 393, 52.6 µM (inactive); in the test on SF-268 it was 31.1 µM (inactive); with SF-295, 25.2 µM (inactive); in the test with SK-OV-3, 67.8 µM (inactive); in the test on SNB-19, > 100 µM (inactive). In addition, the GI50 with TK-10 was > 100 µM (inactive); with UACC-62, 13.5 µM (inactive).
`O=C(OCCN=c1c2ccccc2ccc2ccccc12)c1cc([N+](=O)[O-])cc([N+](=O)[O-])c1`: the GI50 in the test on 786-0, with A549, with CCRF-CEM, in the test on COLO 205, with HL-60 and in the test on HOP-92 was > 100 µM (inactive) throughout. For the same compound, the GI50 in the test on LOX IMVI was > 100 µM (inactive); with MDA-MB-435 it was > 100 µM (inactive); in the test with NCI/ADR-RES, > 100 µM (inactive); with OVCAR-3, 40.6 µM (inactive); with OVCAR-4, 36.1 µM (inactive); in the test on OVCAR-8, > 100 µM (inactive). In addition, the GI50 with RPMI-8226, in the test on RXF 393, with SF-268, with SF-295, in the test on SK-OV-3 and in the test on SNB-19 was > 100 µM (inactive) in each case. Also, the GI50 in the test with TK-10 and in the test with UACC-62 was > 100 µM (inactive) throughout.
On to `O=S1(=O)OCCOS(=O)(=O)C1C1c2ccccc2-c2ccccc21`, for which the GI50 is 20 µM (inactive) with 786-0; 40.8 µM (inactive) in the test on A549; 16.4 µM (inactive) in the test with CCRF-CEM; 70.5 µM (inactive) in the test with COLO 205; 15.5 µM (inactive) with HL-60; > 100 µM (inactive) in the test with HOP-92. For the same compound, the GI50 with LOX IMVI is 14.8 µM (inactive); in the test with MDA-MB-435, 33.6 µM (inactive); in the test with NCI/ADR-RES, 25.7 µM (inactive); in the test on OVCAR-3, 47 µM (inactive); with OVCAR-4 it was 23 µM (inactive); in the test on OVCAR-8, 50.8 µM (inactive). Further, the GI50 is 28.6 µM (inactive) in the test with RPMI-8226; 50.9 µM (inactive) with RXF 393; 28.9 µM (inactive) in the test on SF-268; 29 µM (inactive) in the test on SF-295; 40.3 µM (inactive) with SK-OV-3; 38.5 µM (inactive) in the test on SNB-19. The results for the GI50 with TK-10 and in the test with UACC-62 were > 100 µM (inactive) and 21.7 µM (inactive), respectively.
On to `C=CCOC1=C(OC(C)=O)C(C2COC(C)(C)O2)OC1=O` (stereo not given), for which the GI50 with 786-0 is 18.7 µM (inactive); in the test with A549, 24 µM (inactive); in the test on CCRF-CEM, 17.4 µM (inactive); with COLO 205, 20 µM (inactive); with HL-60, 19.6 µM (inactive); with HOP-92 it was 17.7 µM (inactive). In addition, the GI50 in the test on LOX IMVI was 11.7 µM (inactive); in the test on MDA-MB-435, 21.9 µM (inactive); with NCI/ADR-RES it was 31.5 µM (inactive); in the test on OVCAR-3 it was 17.9 µM (inactive); in the test with OVCAR-4, 21.5 µM (inactive); in the test with OVCAR-8, 38.8 µM (inactive). In addition, the GI50 in the test on RPMI-8226 was 22.1 µM (inactive); in the test on RXF 393, 21.2 µM (inactive); with SF-268, 31.6 µM (inactive); in the test with SF-295 it was 36 µM (inactive); in the test on SK-OV-3 it was > 100 µM (inactive); with SNB-19, > 100 µM (inactive). Besides, the GI50 in the test with TK-10 is 29.7 µM (inactive); in the test on UACC-62, 22.2 µM (inactive).
Turning to `CC(C)(C)OC(=O)NCC(=O)N(CCc1ccc(Cl)c(Cl)c1)CCN1CCCC1`, the GI50 was 14 µM (inactive) with 786-0; 17.7 µM (inactive) with A549; 10.6 µM (inactive) in the test with CCRF-CEM; 13.6 µM (inactive) with COLO 205; 12.1 µM (inactive) in the test with HL-60; 3.78 µM (inactive) with HOP-92. Moreover, the GI50 in the test with LOX IMVI is 14.6 µM (inactive); in the test on MDA-MB-435, 13.9 µM (inactive); in the test with NCI/ADR-RES, 15.3 µM (inactive); in the test with OVCAR-3, 16.7 µM (inactive); with OVCAR-4, 21.2 µM (inactive); in the test with OVCAR-8, 18 µM (inactive). Also, the GI50 in the test with RPMI-8226 is 5.01 µM (inactive); in the test with RXF 393, 14.9 µM (inactive); with SF-268, 15.3 µM (inactive); with SF-295 it was 17.3 µM (inactive); in the test with SK-OV-3, 14.9 µM (inactive); with SNB-19, 17.8 µM (inactive). The GI50 with TK-10 is 17.1 µM (inactive); in the test on UACC-62, 17.4 µM (inactive).
As to `C=C(C)C(O)C(O)C[C@@H](C)C1CC[C@]23C[C@]12CCC1[C@@]2(C)CCC(OC(C)=O)C(C)(C)C2CC(OC2OC(CO)C(O)C(O)C2O)[C@]13C` (stereo not given in full), the GI50 in the test on 786-0 is 19.1 µM (inactive); in the test with A549, 50 µM (inactive); in the test on CCRF-CEM it was 14.2 µM (inactive); in the test on COLO 205, 17.6 µM (inactive); in the test on HL-60, 18.1 µM (inactive); in the test on HOP-92, 12.9 µM (inactive). Moreover, the GI50 with LOX IMVI is 17.6 µM (inactive); in the test on MDA-MB-435 it was 17.5 µM (inactive); in the test with NCI/ADR-RES, > 100 µM (inactive); in the test with OVCAR-3 it was 17.6 µM (inactive); with OVCAR-4, 16 µM (inactive); in the test on OVCAR-8, 19.5 µM (inactive). The GI50 in the test with RPMI-8226 is 21.5 µM (inactive); with RXF 393, 15.4 µM (inactive); with SF-268, 18.3 µM (inactive); in the test on SF-295 it was 18.9 µM (inactive); with SK-OV-3 it was 20.9 µM (inactive); in the test on SNB-19, 20 µM (inactive). Besides, the GI50 with TK-10 is 20.8 µM (inactive); in the test on UACC-62, 17.7 µM (inactive).
On to `O=C(N/C(=C\c1ccccc1)C1Nc2ccccc2C(=O)O1)c1ccccc1` (stereo not given), for which the GI50 with 786-0 was 24.5 µM (inactive); in the test with A549 it was 87.5 µM (inactive); with CCRF-CEM, 19.1 µM (inactive); in the test on COLO 205, 30.4 µM (inactive); with HL-60, 12.4 µM (inactive); in the test with HOP-92, > 100 µM (inactive). Further, the GI50 in the test on LOX IMVI is 18.2 µM (inactive); with MDA-MB-435, 34.5 µM (inactive); in the test on NCI/ADR-RES, 25.9 µM (inactive); in the test with OVCAR-3, 27.3 µM (inactive); in the test with OVCAR-4, 53.7 µM (inactive); with OVCAR-8, 21.4 µM (inactive). In addition, the GI50 is 23.3 µM (inactive) in the test with RPMI-8226; 23.6 µM (inactive) in the test with RXF 393; 44 µM (inactive) in the test on SF-268; 37 µM (inactive) in the test with SF-295; 55.6 µM (inactive) in the test on SK-OV-3; 33.8 µM (inactive) with SNB-19. Moreover, the GI50 was > 100 µM (inactive) with TK-10 and 27.5 µM (inactive) in the test on UACC-62.
Consider `NS(=O)(=O)c1cc(C(=O)O)c(Cl)c([N+](=O)[O-])c1Cl`, for which the GI50 with 786-0, in the test with A549, in the test on CCRF-CEM, in the test with COLO 205, in the test with HL-60 and with HOP-92 was > 100 µM (inactive) throughout. Further, the GI50 in the test on LOX IMVI, in the test on MDA-MB-435, with NCI/ADR-RES, in the test with OVCAR-3, in the test on OVCAR-4 and in the test with OVCAR-8 was > 100 µM (inactive) each time. In addition, the GI50 in the test with RPMI-8226, in the test on RXF 393, in the test on SF-268, in the test with SF-295, in the test with SK-OV-3 and with SNB-19 was > 100 µM (inactive) throughout. The GI50 in the test on TK-10 and with UACC-62 was > 100 µM (inactive) each time.

The record behind these values is ChEMBL document CHEMBL1201862, “PubChem BioAssay data set” (2004).
